Reference: ChEMBL document CHEMBL4742393, “Compounds for treatment of hypoproliferative disorders” (2019)
One block for each compound: values may come before it. Active and inactive are the calls of the source. No cut-off for these calls is given here.

How the values were obtained:
[1] = target: Cyclin-dependent kinase 19 (Homo sapiens) (UniProt Q9BWU1); experiment: Inhibition of CDK19(CDK11) (unknown origin) assessed as residual ligand binding level at 10000 nM relative to control
[2] = target: Casein kinase I isoform alpha (Homo sapiens) (UniProt P48729); experiment: Inhibition of CSNK1A1 (unknown origin) assessed as residual ligand binding level at 10000 nM relative to control
[3] = target: Homeodomain-interacting protein kinase 1 (Homo sapiens) (UniProt Q86Z02); experiment: Inhibition of HIPK1 (unknown origin) assessed as residual ligand binding level at 10000 nM relative to control
[4] = target: Casein kinase I isoform delta (Homo sapiens) (UniProt P48730); experiment: Inhibition of CSNK1D (unknown origin) assessed as residual ligand binding level at 10000 nM relative to control
[5] = target: Casein kinase I isoform gamma-1 (Homo sapiens) (UniProt Q9HCP0); experiment: Inhibition of CSNK1G1 (unknown origin) assessed as residual ligand binding level at 10000 nM relative to control
[6] = target: Casein kinase I isoform epsilon (Homo sapiens) (UniProt P49674); experiment: Inhibition of CSNK1E (unknown origin) assessed as residual ligand binding level at 10000 nM relative to control
[7] = target: Death-associated protein kinase 1 (Homo sapiens) (UniProt P53355); experiment: Inhibition of DAPK1 (unknown origin) assessed as residual ligand binding level at 10000 nM relative to control
[8] = target: Serine/threonine-protein kinase pim-1 (Homo sapiens) (UniProt P11309); experiment: Inhibition of PIM1 (unknown origin) assessed as residual ligand binding level at 10000 nM relative to control
[9] = target: Dual specificity tyrosine-phosphorylation-regulated kinase 1B (Homo sapiens) (UniProt Q9Y463); experiment: Inhibition of DYRK1B (unknown origin) assessed as residual ligand binding level at 10000 nM relative to control
[10] = target: Casein kinase I isoform gamma-2 (Homo sapiens) (UniProt P78368); experiment: Inhibition of CSNK1G2 (unknown origin) assessed as residual ligand binding level at 10000 nM relative to control
[11] = target: TGF-beta receptor type-1 (Homo sapiens) (UniProt P36897); experiment: Inhibition of TGFBR1 (unknown origin) assessed as residual ligand binding level at 10000 nM relative to control
[12] = target: Ribosomal protein S6 kinase alpha-6 (Homo sapiens) (UniProt Q9UK32); experiment: Inhibition of RSK4 c-terminal kinase domain (unknown origin) assessed as residual ligand binding level at 10000 nM relative to control
Homo sapiens = organism: Homo sapiens; experiment: Inhibition of GCN2 kinase domain 2 […] mutant (unknown origin) assessed as residual ligand binding level at 10000 nM relative to control
[13] = target: Mitogen-activated protein kinase 14 (Homo sapiens) (UniProt Q16539); experiment: Inhibition of p38-alpha (unknown origin) assessed as residual ligand binding level at 10000 nM relative to control
[14] = target: Casein kinase I isoform alpha-like (Homo sapiens) (UniProt Q8N752); experiment: Inhibition of CSNK1A1L (unknown origin) assessed as residual ligand binding level at 10000 nM relative to control
[15] = target: Casein kinase I isoform gamma-3 (Homo sapiens) (UniProt Q9Y6M4); experiment: Inhibition of CSNK1G3 (unknown origin) assessed as residual ligand binding level at 10000 nM relative to control
[16] = target: Dual specificity tyrosine-phosphorylation-regulated kinase 2 (Homo sapiens) (UniProt Q92630); experiment: Inhibition of DYRK2 (unknown origin) assessed as residual ligand binding level at 10000 nM relative to control
[17] = target: Dual specificity tyrosine-phosphorylation-regulated kinase 1A (Homo sapiens) (UniProt Q13627); experiment: Inhibition of DYRK1A (unknown origin) assessed as residual ligand binding level at 10000 nM relative to control
Mus musculus = experiment: Induction of rescue of anemia in RPS19-deficient mouse model for DBA assessed as improvement in erythrocytes production at 10 mg/kg, po dosed every 12 hrs for 5 times and measured 48 hrs after last dose; assay type: functional, organism-based; conditions: time 108.0 hrs
[18] = target: T1, CDK8/CDK19 (Mus musculus) (UniProt Q8R3L8+Q8BWD8); experiment: Inhibition of CDK8/CDK19 assessed as rescue of proliferation of RPS19-deficient mouse erythroid progenitor cells by cell-based phenotypic screening assay; assay type: tissue-based
[19] = test system: Erythroid progenitor cell; experiment: Increase in erythroid maturation of erythroid progenitor cells isolated from DBA patient assessed as increase in CD71 and CD235a positive cells level measured at day 8 of culture by flow cytometry; assay type: functional, tissue-based; conditions: Homo sapiens
[20] = test system: CD34-positive (myeloid/lymphoid) cell; experiment: Rescue of proliferation of CD34+ erythroid progenitor cells isolated from DBA patient with RPS19 mutation at 200 nM measured at day 14 of culture; assay type: functional, tissue-based; conditions: Homo sapiens, time 14.0 day
[21] = test system: Erythroid progenitor cell; experiment: Rescue of proliferation of CD34+ erythroid progenitor cells isolated from DBA patient with […] mutation at 200 nM measured at day 14 of culture; assay type: functional, tissue-based; conditions: Homo sapiens, time 14.0 day
[22] = test system: CD34-positive (myeloid/lymphoid) cell; experiment: Rescue of proliferation of CD34+ erythroid progenitor cells isolated from DBA patient with RPS26 mutation at 200 nM measured at day 14 of culture; assay type: functional, tissue-based; conditions: Homo sapiens, time 14.0 day
[23] = Rescue of cell survival defect in RPS19-deficient erythroid progenitor cells isolated from mouse model of DBA assessed as c-kit+ progenitor cell levels at 0.03 uM by 7-AAD dye based FACS analysis (reference value: 38%); assay type: functional
[24] = Rescue of cell survival defect in RPS19-deficient erythroid progenitor cells isolated from mouse model of DBA assessed as live cell levels at 0.03 uM by 7-AAD dye based FACS analysis (reference value: 31%); assay type: functional
[25] = target: T1, CDK8/CDK19 (Mus musculus); experiment: Inhibition of CDK8/CDK19 assessed as rescue of proliferation of RPS19-deficient erythroid progenitor cells isolated from mouse model of DBA by cell-based phenotypic screening assay relative to control; assay type: tissue-based
[26] = Rescue of cell survival defect in RPS19-deficient erythroid progenitor cells isolated from mouse model of DBA assessed as live cell levels at 5 uM by 7-AAD dye based FACS analysis (reference value: 31%); assay type: functional
[27] = Rescue of cell survival defect in RPS19-deficient erythroid progenitor cells isolated from mouse model of DBA assessed as c-kit+ progenitor cell levels at 5 uM by 7-AAD dye based FACS analysis (reference value: 38%); assay type: functional

T1 sequence (Q8BWD8 whole entry, looked up): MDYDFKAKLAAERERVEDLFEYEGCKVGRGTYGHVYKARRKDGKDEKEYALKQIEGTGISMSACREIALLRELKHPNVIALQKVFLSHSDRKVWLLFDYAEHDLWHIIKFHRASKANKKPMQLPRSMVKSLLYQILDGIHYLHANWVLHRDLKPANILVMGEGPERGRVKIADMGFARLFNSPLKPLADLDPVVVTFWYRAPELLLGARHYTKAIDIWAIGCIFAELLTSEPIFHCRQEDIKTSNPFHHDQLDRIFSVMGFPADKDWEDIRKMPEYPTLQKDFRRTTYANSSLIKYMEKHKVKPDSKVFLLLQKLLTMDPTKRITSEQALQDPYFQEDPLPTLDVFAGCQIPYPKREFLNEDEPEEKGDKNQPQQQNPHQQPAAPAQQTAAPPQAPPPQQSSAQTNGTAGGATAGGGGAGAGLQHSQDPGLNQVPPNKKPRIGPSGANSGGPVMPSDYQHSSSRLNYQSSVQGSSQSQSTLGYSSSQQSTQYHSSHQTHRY
T1 sequence (Q8R3L8 whole entry, looked up): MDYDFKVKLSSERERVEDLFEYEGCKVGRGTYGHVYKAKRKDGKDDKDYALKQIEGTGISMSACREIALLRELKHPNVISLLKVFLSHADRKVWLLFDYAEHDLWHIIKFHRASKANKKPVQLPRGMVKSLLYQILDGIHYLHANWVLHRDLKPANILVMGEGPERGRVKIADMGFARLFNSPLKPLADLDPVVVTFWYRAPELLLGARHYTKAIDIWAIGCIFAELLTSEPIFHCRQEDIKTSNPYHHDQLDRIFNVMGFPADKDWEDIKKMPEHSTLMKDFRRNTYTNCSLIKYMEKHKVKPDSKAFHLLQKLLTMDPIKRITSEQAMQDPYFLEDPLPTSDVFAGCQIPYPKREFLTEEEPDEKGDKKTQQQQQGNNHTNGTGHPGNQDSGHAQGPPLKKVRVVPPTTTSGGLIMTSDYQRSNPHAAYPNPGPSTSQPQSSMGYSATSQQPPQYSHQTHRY
Dual specificity tyrosine-phosphorylation-regulated kinase 1B (Homo sapiens), sequence (Q9Y463 whole entry, looked up, canonical isoform): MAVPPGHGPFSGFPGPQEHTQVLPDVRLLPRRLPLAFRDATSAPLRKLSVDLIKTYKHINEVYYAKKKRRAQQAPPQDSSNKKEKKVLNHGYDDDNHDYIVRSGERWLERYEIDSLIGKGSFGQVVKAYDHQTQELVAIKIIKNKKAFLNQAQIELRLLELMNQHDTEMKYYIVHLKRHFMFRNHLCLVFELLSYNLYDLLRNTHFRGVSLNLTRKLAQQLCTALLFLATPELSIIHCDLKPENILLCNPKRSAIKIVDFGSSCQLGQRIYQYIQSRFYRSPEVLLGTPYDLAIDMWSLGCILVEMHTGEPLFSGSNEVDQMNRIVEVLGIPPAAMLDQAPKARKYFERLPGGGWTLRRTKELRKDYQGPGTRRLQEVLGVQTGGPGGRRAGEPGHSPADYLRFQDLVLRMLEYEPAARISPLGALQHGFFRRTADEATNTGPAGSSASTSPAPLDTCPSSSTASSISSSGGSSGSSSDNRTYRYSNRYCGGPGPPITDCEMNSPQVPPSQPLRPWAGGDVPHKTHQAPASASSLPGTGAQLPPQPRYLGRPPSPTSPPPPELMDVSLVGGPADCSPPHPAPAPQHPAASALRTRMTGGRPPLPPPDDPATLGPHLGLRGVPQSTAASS
Casein kinase I isoform delta (Homo sapiens), sequence (P48730 whole entry, looked up, canonical isoform): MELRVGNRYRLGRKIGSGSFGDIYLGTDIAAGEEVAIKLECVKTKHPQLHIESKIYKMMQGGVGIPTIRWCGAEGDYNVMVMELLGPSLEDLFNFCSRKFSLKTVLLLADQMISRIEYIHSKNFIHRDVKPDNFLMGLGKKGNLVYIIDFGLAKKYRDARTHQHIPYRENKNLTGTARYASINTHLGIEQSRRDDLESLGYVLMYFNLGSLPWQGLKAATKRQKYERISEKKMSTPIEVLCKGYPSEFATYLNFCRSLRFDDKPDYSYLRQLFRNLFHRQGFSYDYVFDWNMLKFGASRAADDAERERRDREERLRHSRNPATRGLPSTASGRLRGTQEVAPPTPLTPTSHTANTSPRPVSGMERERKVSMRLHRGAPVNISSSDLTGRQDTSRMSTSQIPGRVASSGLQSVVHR
Casein kinase I isoform gamma-1 (Homo sapiens), sequence (Q9HCP0 whole entry, looked up, canonical isoform): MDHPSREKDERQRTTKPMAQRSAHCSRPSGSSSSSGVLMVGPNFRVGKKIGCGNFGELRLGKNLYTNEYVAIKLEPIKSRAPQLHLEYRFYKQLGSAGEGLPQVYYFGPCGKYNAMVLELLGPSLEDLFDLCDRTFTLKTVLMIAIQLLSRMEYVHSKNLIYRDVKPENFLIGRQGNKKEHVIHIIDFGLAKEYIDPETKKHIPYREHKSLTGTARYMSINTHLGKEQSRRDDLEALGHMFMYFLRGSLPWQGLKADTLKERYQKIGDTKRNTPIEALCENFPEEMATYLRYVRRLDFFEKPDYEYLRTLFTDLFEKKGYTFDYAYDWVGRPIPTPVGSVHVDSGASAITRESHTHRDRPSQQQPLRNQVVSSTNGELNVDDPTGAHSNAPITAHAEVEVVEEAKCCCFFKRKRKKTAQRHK
Casein kinase I isoform gamma-2 (Homo sapiens), sequence (P78368 whole entry, looked up, canonical isoform): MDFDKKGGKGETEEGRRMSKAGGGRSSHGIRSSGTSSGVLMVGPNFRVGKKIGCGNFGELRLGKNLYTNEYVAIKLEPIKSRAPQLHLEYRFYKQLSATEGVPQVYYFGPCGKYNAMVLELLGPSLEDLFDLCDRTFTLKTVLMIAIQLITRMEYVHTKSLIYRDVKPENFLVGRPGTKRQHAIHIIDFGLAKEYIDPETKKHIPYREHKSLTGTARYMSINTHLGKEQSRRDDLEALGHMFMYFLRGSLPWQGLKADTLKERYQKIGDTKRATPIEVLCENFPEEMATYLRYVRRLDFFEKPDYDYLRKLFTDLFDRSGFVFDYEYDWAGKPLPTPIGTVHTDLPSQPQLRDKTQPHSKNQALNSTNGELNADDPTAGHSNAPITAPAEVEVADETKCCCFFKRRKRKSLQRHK
Casein kinase I isoform epsilon (Homo sapiens), sequence (P49674 whole entry, looked up, canonical isoform): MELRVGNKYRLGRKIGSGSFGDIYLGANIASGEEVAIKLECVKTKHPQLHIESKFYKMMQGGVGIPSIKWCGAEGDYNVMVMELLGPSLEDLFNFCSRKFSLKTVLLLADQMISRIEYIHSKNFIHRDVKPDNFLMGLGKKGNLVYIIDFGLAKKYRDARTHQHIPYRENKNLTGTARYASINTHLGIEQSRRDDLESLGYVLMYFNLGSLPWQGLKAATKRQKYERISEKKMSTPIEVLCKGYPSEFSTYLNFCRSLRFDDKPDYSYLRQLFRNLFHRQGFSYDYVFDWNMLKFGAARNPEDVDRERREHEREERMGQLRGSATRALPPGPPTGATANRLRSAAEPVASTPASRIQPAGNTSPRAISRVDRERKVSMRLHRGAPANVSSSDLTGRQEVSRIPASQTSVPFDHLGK
Serine/threonine-protein kinase pim-1 (Homo sapiens), sequence (P11309 whole entry, looked up): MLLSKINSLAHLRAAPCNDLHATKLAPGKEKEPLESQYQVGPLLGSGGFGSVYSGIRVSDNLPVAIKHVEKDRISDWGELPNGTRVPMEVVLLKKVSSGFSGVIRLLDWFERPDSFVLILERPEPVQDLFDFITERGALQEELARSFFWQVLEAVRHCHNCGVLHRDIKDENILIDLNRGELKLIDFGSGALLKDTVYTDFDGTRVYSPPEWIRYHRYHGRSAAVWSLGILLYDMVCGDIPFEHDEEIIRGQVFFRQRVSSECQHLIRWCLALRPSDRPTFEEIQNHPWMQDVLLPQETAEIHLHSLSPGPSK
Homeodomain-interacting protein kinase 1 (Homo sapiens), sequence (Q86Z02 whole entry, looked up, canonical isoform): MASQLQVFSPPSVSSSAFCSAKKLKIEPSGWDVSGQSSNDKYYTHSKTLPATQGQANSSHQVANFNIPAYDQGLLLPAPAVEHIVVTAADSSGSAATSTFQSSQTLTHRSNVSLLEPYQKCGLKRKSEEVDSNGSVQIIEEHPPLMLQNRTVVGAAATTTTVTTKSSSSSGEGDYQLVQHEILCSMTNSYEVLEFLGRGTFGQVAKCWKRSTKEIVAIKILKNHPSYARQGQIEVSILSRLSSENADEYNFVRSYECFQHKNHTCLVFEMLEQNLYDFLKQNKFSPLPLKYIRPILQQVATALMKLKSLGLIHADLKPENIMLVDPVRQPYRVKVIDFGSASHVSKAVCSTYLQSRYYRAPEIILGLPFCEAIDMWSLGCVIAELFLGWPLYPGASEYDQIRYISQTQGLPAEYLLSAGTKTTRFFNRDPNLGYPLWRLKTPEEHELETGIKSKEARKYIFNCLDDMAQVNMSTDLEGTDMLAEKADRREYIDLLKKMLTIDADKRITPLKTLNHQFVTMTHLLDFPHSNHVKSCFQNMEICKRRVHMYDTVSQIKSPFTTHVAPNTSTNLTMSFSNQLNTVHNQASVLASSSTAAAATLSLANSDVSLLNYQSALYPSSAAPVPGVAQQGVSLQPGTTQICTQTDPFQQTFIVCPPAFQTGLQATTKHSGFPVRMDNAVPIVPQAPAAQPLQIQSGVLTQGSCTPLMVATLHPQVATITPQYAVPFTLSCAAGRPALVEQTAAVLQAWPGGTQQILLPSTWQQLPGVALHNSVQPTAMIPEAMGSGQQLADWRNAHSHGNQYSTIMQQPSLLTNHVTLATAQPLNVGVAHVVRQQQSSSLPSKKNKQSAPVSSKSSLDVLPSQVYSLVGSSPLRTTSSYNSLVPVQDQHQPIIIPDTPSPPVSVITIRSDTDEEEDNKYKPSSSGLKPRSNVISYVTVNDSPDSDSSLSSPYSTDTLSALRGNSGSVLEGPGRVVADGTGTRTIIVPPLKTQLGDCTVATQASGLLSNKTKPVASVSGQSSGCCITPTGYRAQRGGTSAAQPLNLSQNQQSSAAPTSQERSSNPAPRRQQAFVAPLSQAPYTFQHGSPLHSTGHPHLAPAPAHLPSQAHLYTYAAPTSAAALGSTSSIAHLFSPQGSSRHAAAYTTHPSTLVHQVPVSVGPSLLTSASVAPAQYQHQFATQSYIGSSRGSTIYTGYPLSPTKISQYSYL

- Activity [1]: 0%
- Activity [2]: 11%
- Activity [3]: 61%
- Activity [4]: 10%
- Activity [5]: 84%
- Activity [6]: 14%
- Activity [8]: 87%
- Activity [9]: 41%
- Activity [10]: 73%
- Activity [11]: 95%
- Activity [12]: 72%
- Activity (Homo sapiens): 94%
- Activity [13]: 88%
- Activity [14]: 25%
- Activity [15]: 67%
- Activity [16]: 46%
- Activity [17]: 50%
SMILES: COCc1cc(C)nc2sc(C(N)=O)c(N)c12
- Activity [7]: 84%
- Activity (Mus musculus): Active

- inhibition [18]: Dose-dependent effect
SMILES: NC(=O)c1sc2nccc(N3CCCN(c4ccccc4)CC3)c2c1N
- Activity (Mus musculus): Active

SMILES: Cc1c(C(N)=O)sc2nc(C(F)(F)F)cc(N)c12
- Activity (Mus musculus): Active

SMILES: Cn1cc(-c2ccc(-c3cncc(Cl)c3N3CCC4(CCNC4=O)CC3)cc2)cn1
- Activity (Mus musculus): Active

SMILES: CN1CCN(C(=O)c2ccc3cc(CCNc4ncnc5ccc(C#N)cc45)ccc3c2)CC1
- Activity [19]: Active
- Activity [20]: Active
- Activity (Mus musculus): Active
- Activity [21]: Active
- Activity [22]: Active

SMILES: CCc1nc2sc(C(N)=O)c(N)c2c2c1CCCC2
- Activity (Mus musculus): Active

SMILES: CN(C)C(=O)Cc1ccc(N2CCCN(c3ccnc4sc(C(N)=O)c(N)c34)CC2)cc1
- Activity [19]: Active
- Activity [20]: Active
- Activity [23]: 63%
- inhibition [18]: Dose-dependent effect
- Activity (Mus musculus): Active
- Activity [21]: Active
- Activity [22]: Active
- Activity [24]: 70%

SMILES: COc1ccc(-c2cc(C3CC3)nc3sc(C(N)=O)c(N)c23)cc1
- Activity (Mus musculus): Active

- ECmax [25]: inactive
SMILES: Cn1ncc2cc(-c3cnc(N)c(Cl)c3N3CCC4(CCNC4=O)CC3)ccc21
- Activity (Mus musculus): Active

SMILES: Cc1c(Br)c(Br)c2c3c1nc(N1CCNCC1)n3CCC2
- Activity [19]: Active
- Activity [20]: Active
- Activity (Mus musculus): Active
- Activity [21]: Active
- Activity [22]: Active

- inhibition [18]: Dose-dependent effect
SMILES: CN(C)c1ccnc2sc(C(N)=O)c(N)c12
- Activity (Mus musculus): Active

SMILES: N#Cc1ccc2ncnc(NCCc3ccccc3)c2c1
- Activity [26]: 77%
- Activity (Mus musculus): Active
- Activity [27]: 65%
